Data: patent US6130239A, “4-Alkenyl- and 4-alkynyloxindoles” (Hoffmann-La Roche Inc., priority 1999, dated 2000)
Counter-ions that a name gives are not always drawn.

Legend:
[1] = system: MDA-MB-435; experiment: Cell-based antiproliferative (MTT) assay, MDA-MB-435 breast carcinoma line; settings: Homo sapiens, MDA-MB-435, 120 h; 5 days post addition of test compound; mostly one experiment, average where repeated; read-out: MDA-MB435 IC50
Experimental: The estrogen receptor negative epithelial breast carcinoma line (MDA-MB-435) was purchased from American Type Cell Culture Collection (ATCC; Rockville, Md.) and was grown in the medium recommended by ATCC. For analysis of the effect of the test compounds on growth of these cells, the cells were plated at 2000 cells per well in a 96-well tissue culture plate, and were incubated overnight at 37° C. with 5% CO2. The next day, the test compounds were dissolved in 100% dimethyl sulfoxide (DMSO) to yield a 10 mM stock solution. Each compound was diluted with sterile medium to 1 mM in a sufficient quantity to yield a final concentration of 120 μM. The compounds were then serially diluted in medium with 1.2% DMSO. One-fourth final volume of the diluted compounds was transferred to 96 well plates. Test compounds were assayed in duplicate. DMSO was added to a row of "control cells" such that the final concentration of DMSO in each well was 0.3%. Wells to which no cells were added served as the "blank." Wells to which no inhibitor was added served as "no inhibitor control". The plates were returned to the incubator, and 5 days post addition of test compound, were analyzed as described below. […] MTT) was added to each well to yield a final concentration of 1 mg/mL. The plates were then incubated at 37° C. for 3 hours. The plates were centrifuged at 1000 rpm for 5 minutes prior to aspiration of the MTT-containing medium. The MTT-containing medium was then removed and 100 μL 100% ethanol was added to each well to dissolve the resulting formazan metabolite. To ensure complete dissolution, plates were shaken for 15 minutes at room temperature. Absorbencies were read in a microtiter plate reader (Molecular Dynamics) at a wavelength of 570 nm with a 650 nm reference. Percent inhibition was calculated by subtracting the absorbance of the blank (no cell) wells from all wells, then subtracting the division of the average absorbance of each test duplicate by the average of the controls from 1.00. Inhibitory concentrations (IC50) were determined from the linear regression of a plot of the logarithm of the concentration versus the percent inhibition.

[2] = system: SW480; experiment: Cell-based antiproliferative (MTT) assay, SW480 colon carcinoma line; settings: Homo sapiens, SW480, 96 h; 4 days post addition of test compound
Experimental: The estrogen receptor negative epithelial breast carcinoma line (MDA-MB-435) was purchased from American Type Cell Culture Collection (ATCC; Rockville, Md.) and was grown in the medium recommended by ATCC. For analysis of the effect of the test compounds on growth of these cells, the cells were plated at 2000 cells per well in a 96-well tissue culture plate, and were incubated overnight at 37° C. with 5% CO2. The next day, the test compounds were dissolved in 100% dimethyl sulfoxide (DMSO) to yield a 10 mM stock solution. Each compound was diluted with sterile medium to 1 mM in a sufficient quantity to yield a final concentration of 120 μM. The compounds were then serially diluted in medium with 1.2% DMSO. One-fourth final volume of the diluted compounds was transferred to 96 well plates. Test compounds were assayed in duplicate. DMSO was added to a row of "control cells" such that the final concentration of DMSO in each well was 0.3%. Wells to which no cells were added served as the "blank." Wells to which no inhibitor was added served as "no inhibitor control". The plates were returned to the incubator, and 5 days post addition of test compound, were analyzed as described below.
3-(4,5-Dimethylthiazole-2-yl)-2,5-diphenyl-2H-tetrazolium bromide (thiazolyl blue; MTT) was added to each well to yield a final concentration of 1 mg/mL. The plates were then incubated at 37° C. for 3 hours. The plates were centrifuged at 1000 rpm for 5 minutes prior to aspiration of the MTT-containing medium. The MTT-containing medium was then removed and 100 μL 100% ethanol was added to each well to dissolve the resulting formazan metabolite. To ensure complete dissolution, plates were shaken for 15 minutes at room temperature. Absorbencies were read in a microtiter plate reader (Molecular Dynamics) at a wavelength of 570 nm with a 650 nm reference. Percent inhibition was calculated by subtracting the absorbance of the blank (no cell) wells from all wells, then subtracting the division of the average absorbance of each test duplicate by the average of the controls from 1.00. Inhibitory concentrations (IC50) were determined from the linear regression of a plot of the logarithm of the concentration versus the percent inhibition.
The colon carcinoma line SW480 also was obtained from the ATCC and was tested according to the same protocol provided above with the following modification: cell line SW480 was plated at 1000 cells per well and analyzed at 4 days post addition of test compound.

[3] = biological target: T1, Cyclin E/CDK2 (Homo sapiens, UniProt P24941); experiment: CDK2 FlashPlate Assay (inhibition of Rb phosphorylation by Cyclin E/CDK2); type: biochemical; settings: for IC50: Table IA, recombinant human Cyclin E/CDK2, Rb substrate, 25 minutes room temperature
T1 construct: made in house; host or cells: insect cells

| IC50 [1] | IC50 [2] | IC50 [3] | inhibition at 1 µM ([3]; Table IB, concentration ≤1.0 μM) | SMILES |
| --- | --- | --- | --- | --- |
| < 3.5 µM | < 1 µM | < 4 µM | – | CCC(O)C#Cc1c([N+](=O)[O-])ccc2c1/C(=C/c1[nH]cnc1C)C(=O)N2 (racemic) [PP, rac-(Z)-1,3-Dihydro-4-(3-hydroxy-1-pentynyl)-3-[(4-methyl-1H-imidazol-5-yl)methylene]-5-nitro-2H-indol-2-one] |
| < 3.5 µM | – | < 4 µM | – | CCOC(=O)C(CC#Cc1c(F)ccc2c1/C(=C/c1[nH]cnc1C)C(=O)N2)NC(C)=O (racemic) [AAA, rac-(Z)-2-(Acetylamino)-5-[5-fluoro-2,3,dihydro-3-[(4-methyl-1H-imidazol-5-yl)methylene]-2-oxo-1H-indol-4-yl]-4-pentynoic acid ethyl ester] |
| < 3.5 µM | – | < 4 µM | – | Cc1nc[nH]c1/C=C1\C(=O)Nc2ccc(F)c(C#CC(C)(C)N)c21 [VV, (Z)-4-[3-Amino-3-methyl-1-butynyl]-1,3-dihydro-5-fluoro-3-[(4-methyl-1H-imidazol-5-yl)methylene]-2H-indol-2-one] |
| < 3.5 µM | – | < 4 µM | – | CCN(CC)CC#Cc1c(F)ccc2c1/C(=C/c1[nH]cnc1C)C(=O)N2 [Compound BBB, (Z)-4-[3-(N,N-Diethylamino)-1-propynyl]-1,3-dihydro-5-fluoro-3-[(4-methyl-1H-imidazol-5-yl)methylene]-2H-indol-2-one] |
| < 3.5 µM | – | – | > 90% | COC(=O)NCC#Cc1c(F)ccc2c1/C(=C/c1[nH]cnc1C)C(=O)N2 [YY, (Z)-[3-[2,3-Dihydro-5-fluoro-3-[(4-methyl-1H-imidazol-5-yl)methylene]-2-oxo-1H-indol-4-yl]-2-propynyl]carbamic acid methyl ester] |
| < 3.5 µM | – | < 4 µM | – | Cc1nc[nH]c1/C=C1\C(=O)Nc2ccc(F)c(C#CCN(C)C)c21 [UU, (Z)-1,3-Dihydro-4-[3-(N,N-dimethylamino)-1-propynyl]-5-fluoro-3-[(4-methyl-1H-imidazol-5-yl)methylene]-2H-indol-2-one] |
| < 3.5 µM | – | < 4 µM | – | Cc1nc[nH]c1/C=C1\C(=O)Nc2ccc(F)c(C#CCOC(N)=O)c21 [WW, (Z)-Carbamic acid 3-[2,3-dihydro-3-[(4-methyl-1H-imidazol-5-yl)methylene]-5-fluoro-2-oxo-1H-indol-4-yl]-2-propynyl ester] |
| < 3.5 µM | – | < 4 µM | – | Cc1nc[nH]c1/C=C1\C(=O)Nc2ccc(F)c(C#CCN3CCOCC3)c21 [XX, (Z)-1,3-Dihydro-5-fluoro-3-[(4-methyl-1H-imidazol-5-yl)methylene]-4-[3-(4-morpholinyl)-1-propynyl]-2H-indol-2-one] |
| < 3.5 µM | < 1 µM | < 4 µM | – | CCC(O)C#Cc1c(F)ccc2c1/C(=C/c1[nH]cnc1C)C(=O)N2 (racemic) [OO, rac-(Z)-1,3-Dihydro-5-fluoro-4-(3-hydroxy-1-pentynyl)-3-[(4-methyl-1H-imidazol-5-yl)methylene]-2H-indol-2-one] |
| < 3.5 µM | < 1 µM | < 4 µM | – | CNCC#Cc1c(F)ccc2c1/C(=C/c1[nH]cnc1C)C(=O)N2 [RR, (Z)-1,3-Dihydro-5-fluoro-4-[3-(N-methylamino)-1-propynyl]-3-[(4-methyl-1H-imidazol-5-yl)methylene]-2H-indol-2-one] |
| – | < 1 µM | – | – | CCC(N)(C#Cc1c(F)ccc2c1/C(=C/c1[nH]cnc1C)C(=O)N2)CC [CCC, (Z)-4-[3-Amino-3-ethyl-1-pentynyl]-1,3-dihydro-5-fluoro-3-[(4-methyl-1H-imidazol-5-yl)methylene]-2H-indol-2-one] |
| – | – | < 4 µM | – | CNC(=O)OCC#Cc1cccc2c1/C(=C/c1[nH]ccc1OC)C(=O)N2 [NN, (Z)-N-Methylcarbamic acid 3-[2,3-dihydro-3-[(3-methoxy-1H-pyrrol-2-yl)methylene]-2-oxo-1H-indol-4-yl]-2-propynyl ester] |
| – | – | < 4 µM | – | Cc1nc[nH]c1/C=C1\C(=O)Nc2ccc(F)c(C#CCNC(N)=O)c21 [ZZ, (Z)-[3-[5-fluoro-2,3-dihydro-3-[(4-methyl-1H-imidazol-5-yl)methylene]-2-oxo-1H-indol-4-yl]-2-propynyl]urea] |
| – | – | < 4 µM | – | C#CCOCCO [Example 21, 3-(2-Hydroxyethoxy)-1-propyne] |
| < 3.5 µM | – | < 4 µM | – | Cc1nc[nH]c1/C=C1\C(=O)Nc2ccc(F)c(C#CCO)c21 [QQ, (Z)-1,3-Dihydro-5-fluoro-4-(3-hydroxy-1-propynyl)-3-[(4-methyl-1H-imidazol-5-yl)methylene]-2H-indol-2-one, trifluoroacetate salt] |
| – | – | < 4 µM | – | COc1cc[nH]c1/C=C1\C(=O)Nc2cccc(C#CCOC(N)=O)c21 [MM, (Z)-Carbamic acid 3-[2,3-dihydro-3-[(3-methoxy-1H-pyrrol-2-yl)methylene]-2-oxo-1H-indol-4-yl]-2-propynyl ester] |
| – | – | < 4 µM | – | CCC(O)C#Cc1cccc2c1/C(=C/c1[nH]ccc1OC)C(=O)N2 (racemic) [R, rac-(Z)-1,3-Dihydro-4-(3-hydroxy-1-pentynyl)-3-[(3-methoxy-1H-pyrrol-2-yl)methylene]-2H-indol-2-one] |
| < 3.5 µM | – | < 4 µM | – | Cc1nc[nH]c1/C=C1\C(=O)Nc2ccc(F)c(C#CCC(C)O)c21 (racemic) [TT, rac-(Z)-1,3-Dihydro-5-fluoro-4-(4-hydroxy-1-pentynyl)-3-[(4-methyl-1H-imidazol-5-yl)methylene]-2H-indol-2-one, trifluoroacetate salt] |
| – | – | < 4 µM | – | COc1cc[nH]c1/C=C1\C(=O)Nc2cccc(C#CCC(C(=O)O)C(=O)O)c21 [W, (Z)-[3-[2,3-Dihydro-3-[(3-methoxy-1H-pyrrol-2-yl)methylene]-2-oxo-1H-indol-4-yl]-2-propynyl]propanedioic acid] |
| – | – | < 4 µM | – | COc1cc[nH]c1/C=C1\C(=O)Nc2cccc(C#CCCCO)c21 [Compound B, (Z)-1,3-Dihydro-4-(5-hydroxy-1-pentynyl)-3-[(3-methoxy-1H-pyrrol-2-yl)methylene]-2H-indol-2-one] |
